In article PMC5015098, “Purification, characterization, cytotoxicity and anticancer activities of L-asparaginase, anti-colon cancer protein, from the newly isolated alkaliphilic Streptomyces fradiae NEAE-82” (Scientific Reports, 2016):

Tested on: T1, L-asparaginase
T1 construct: gene EC 3.5.1.1
Settings: 0.05 M Tris-HCl pH 8.6, 37 °C, 30 min (standard assay)

## NC(=O)C[C@H](N)C(=O)O [L-asparagine]
  Km: 10.1 mM
